The test concerns the target BRD4(BD1) (Homo sapiens (Human), UniProt O60885). Put plainly: In vitro enzyme inhibition assay (BRD4 AlphaScreen). It counts as binding. How it is done: His-tagged BRD4 was cloned, expressed and purified to homogeneity. […] BRD4 binding and inhibition was assessed by monitoring the interaction of biotinylated H4-tetraacetyl peptide (AnaSpec, H4K5/8/12/16(Ac), biotin-labeled) with the target using the AlphaScreen technology (Life Technologies). […] After 20 min incubation at room temp, Alpha streptavidin donor beads and Nickel Chelate acceptor beads were added to a final concentration of 5 μg/mL.
The ability of the compounds disclosed herein to inhibit BRD4 activity was quantified and the respective IC50 value was determined.
In general terms: Bead proximity is the source of the signal in Alpha formats.

Where [1] appears, read: in vitro enzyme inhibition assay.

Structures can show the parent of a compound that is named as a salt. Bounds are passed on as bounds.

Compound `CCS(=O)(=O)c1ccc(NCC2CC2)c(-c2cc(NC)c(=O)n(C)c2)c1` [Example 408, 5-[2-(cyclopropylmethylamino)-5-ethylsulfonylphenyl]-1-methyl-3-(methylamino)pyridin-2-one] came in with an IC50 under setting [1] below 0.5 µM. With `COc1ccccc1-c1cn(C)c(=O)c2ccccc12` [Example 4, 4-(2-methoxyphenyl)-2-methylisoquinolin-1-one], the IC50 (class symbols A/B/C) is above 5 µM. Compound `CCCC1Cc2cc(NS(=O)(=O)CC)cc(-c3cc(C)c(=O)n(C)c3)c2O1` (centres unmarked) [Example 495, N-[7-(1,5-dimethyl-6-oxopyridin-3-yl)-2-propyl-2,3-dihydro-1-benzofuran-5-yl] ethanesulfonamide] displayed an IC50 under setting [1] below 0.5 µM. For `Cn1cc(-c2cc(CS(C)(=O)=O)ccc2OCC(F)(F)F)c2ocnc2c1=O` [Example 239, 5-methyl-7-[5-(methylsulfonylmethyl)-2-(2,2,2-trifluoroethoxy)phenyl]-[1,3]oxazolo[4,5-c]pyridin-4-one], under setting [1], the IC50 was below 0.5 µM. In turn, `Cn1cc(-c2ccco2)c2ccccc2c1=O` [Example 66, 4-(furan-2-yl)-2-methylisoquinolin-1-one] yielded an IC50 (class symbols A/B/C) above 5 µM. The compound `CCS(=O)(=O)c1ccc(O)c(-c2cn(C)c(=O)c3ccc(-c4cnn(C)c4)cc23)c1` [Example 80, 4-(5-ethylsulfonyl-2-hydroxyphenyl)-2-methyl-6-(1-methylpyrazol-4-yl) isoquinolin-1-one] had an IC50 (class symbols A/B/C) below 0.5 µM. Take `Cc1cc(-c2cc(S(C)(=O)=O)ccc2NC2CCC(F)(F)CC2)cn(C)c1=O` [Example 413, 5-[2-[(4,4-difluorocyclohexyl)amino]-5-methylsulfonylphenyl]-1,3-dimethylpyridin-2-one]: under setting [1], the IC50 is below 0.5 µM. `CCS(=O)(=O)c1ccc(OCC2CC2)c(-c2cc(N3CCCC3)c(=O)n(C)c2)c1` [Example 282, 5-[2-(cyclopropylmethoxy)-5-ethylsulfonylphenyl]-1-methyl-3-pyrrolidin-1-ylpyridin-2-one] came in with an IC50 under setting [1] of 0.5 to 5 µM.

Compound `C#Cc1cc(-c2cc(S(C)(=O)=O)ccc2OCC2CC2)cn(C)c1=O` [Example 285, 5-[2-(cyclopropylmethoxy)-5-methylsulfonylphenyl]-3-ethynyl-1-methylpyridin-2-one] yielded an IC50 under setting [1] of 0.5 to 5 µM. For the compound `COc1ccc(-c2cn(C)c(=O)c3cnccc23)cc1S(N)(=O)=O` [Example 56, 2-methoxy-5-(2-methyl-1-oxo-2,7-naphthyridin-4-yl) benzenesulfonamide], the IC50 (class symbols A/B/C) was above 5 µM. In the case of `COc1ccc(-c2cn(C)c(=O)c3cc(F)ccc23)cc1S(N)(=O)=O` [Example 64, 5-(7-fluoro-2-methyl-1-oxoisoquinolin-4-yl)-2-methoxybenzenesulfonamide], the IC50 (class symbols A/B/C) is 0.5 to 5 µM. In turn, `Cc1cc(-c2cc(OCc3cccc(C#N)c3)cc(S(C)(=O)=O)c2)cn(C)c1=O` [Example 339, 3-[[3-(1,5-dimethyl-6-oxopyridin-3-yl)-5-methylsulfonylphenoxy]methyl]benzonitrile] returned an IC50 under setting [1] below 0.5 µM.

For `COCC1COc2c(cc(S(C)(=O)=O)cc2-c2cc(C)c(=O)n(C)c2)O1` (centres unmarked) [Example 502, 5-[2-(methoxymethyl)-7-methylsulfonyl-2,3-dihydro-1,4-benzodioxin-5-yl]-1,3-dimethylpyridin-2-one], under setting [1], the IC50 is below 0.5 µM.

In turn, `CCC1CCc2cc(NS(C)(=O)=O)cc(-c3cn(C)c(=O)c4ccccc34)c2O1` (centres unmarked) [Example 490, N-[2-ethyl-8-(2-methyl-1-oxoisoquinolin-4-yl)-3,4-dihydro-2H-chromen-6-yl] methanesulfonamide] showed an IC50 under setting [1] below 0.5 µM.

For the compound `CCS(=O)(=O)c1ccc(NCC2CC2)c(-c2cn(C)c(=O)c3cncn23)c1` [Example 375, 5-[2-(cyclopropylmethylamino)-5-ethylsulfonylphenyl]-7-methylimidazo[1,5-a]pyrazin-8-one], the IC50 under setting [1] is below 0.5 µM. With `Cn1cc(-c2cc(S(C)(=O)=O)ccc2CCC2CC2)c2ccccc2c1=O` [Example 319, 4-[2-(2-cyclopropylethyl)-5-methylsulfonylphenyl]-2-methylisoquinolin-1-one], the IC50 under setting [1] is below 0.5 µM. In turn, `Cc1cc(-c2cc(S(C)(=O)=O)ccc2NC2CCOC2)cn(C)c1=O` (centres unmarked) [Example 425, 1,3-dimethyl-5-[5-methylsulfonyl-2-(oxolan-3-ylamino)phenyl]pyridin-2-one] yielded an IC50 under setting [1] below 0.5 µM. Same read-out and setting: for `CCCc1cnc(NS(=O)(=O)CC)nc1-c1cc(Cl)c(=O)n(C)c1` [Example 359, N-[4-(5-chloro-1-methyl-6-oxopyridin-3-yl)-5-propylpyrimidin-2-yl]ethanesulfonamide] the value was below 0.5 µM; for `CCS(=O)(=O)c1ccc(OCC2CC2)c(-c2cn(C)c(=O)c3cncnc23)c1` [Example 232, 8-[2-(cyclopropylmethoxy)-5-ethylsulfonylphenyl]-6-methylpyrido[4,3-d]pyrimidin-5-one], below 0.5 µM; for `Cc1cc(-c2cc(OCC3(C)COC3)cc(S(C)(=O)=O)c2)cn(C)c1=O` [Example 329, 1,3-dimethyl-5-[3-[(3-methyloxetan-3-yl)methoxy]-5-methylsulfonylphenyl]pyridin-2-one], below 0.5 µM. The same measure, in the same setting: for `Cn1cc(-c2cc(S(C)(=O)=O)ccc2OCC2CC2)c2ocnc2c1=O` [Example 237, 7-[2-(cyclopropylmethoxy)-5-methylsulfonylphenyl]-5-methyl-[1,3]oxazolo[4,5-c]pyridin-4-one] the value was below 0.5 µM.

`CCC#CCOc1ccc(S(=O)(=O)CC)cc1-c1cc(OC)c(=O)n(C)c1` [Example 390, 5-(5-ethylsulfonyl-2-pent-2-ynoxyphenyl)-3-methoxy-1-methylpyridin-2-one] gave an IC50 under setting [1] below 0.5 µM. The compound `CCS(=O)(=O)Nc1cccc(-c2nn(C)c(=O)cc2C)c1` [Example 479, N-[3-(1,4-dimethyl-6-oxopyridazin-3-yl)phenyl]ethanesulfonamide] showed an IC50 under setting [1] above 5 µM. Same read-out and setting: as for `Cn1cc(-c2cc(OCC3CC3)cc(S(C)(=O)=O)c2)c2ccccc2c1=O` [Example 345, 4-[3-(cyclopropylmethoxy)-5-methylsulfonylphenyl]-2-methylisoquinolin-1-one], the figure is below 0.5 µM. As to `CCC(=O)Nc1cc(-c2cccc(NS(C)(=O)=O)c2)cn(C)c1=O` [Example 481, N-[5-[3-(methanesulfonamido)phenyl]-1-methyl-2-oxopyridin-3-yl]propanamide], the IC50 under setting [1] is above 5 µM. In the case of `Cc1cc(-c2nc(NS(C)(=O)=O)ncc2Oc2ccc(F)cc2F)cn(CC2CCC2)c1=O` [Example 298, N-[4-[1-(cyclobutylmethyl)-5-methyl-6-oxopyridin-3-yl]-5-(2,4-difluorophenoxy)pyrimidin-2-yl]methanesulfonamide], under setting [1], the IC50 is 0.5 to 5 µM.

In the case of `Cc1cc(-c2cc(OCc3ccc(F)cc3F)cc(S(C)(=O)=O)c2)cn(C)c1=O` [Example 335, 5-[3-[(2,4-difluorophenyl)methoxy]-5-methylsulfonylphenyl]-1,3-dimethylpyridin-2-one], the IC50 under setting [1] is below 0.5 µM.

As to `Cn1cc(-c2nc(S(C)(=O)=O)ncc2Oc2ccc(F)cc2F)c2ccccc2c1=O` [Example 151, 4-[5-(2,4-difluorophenoxy)-2-methylsulfonylpyrimidin-4-yl]-2-methylisoquinolin-1-one], the IC50 under setting [1] was below 0.5 µM. In the case of `Cn1cc(-c2cc(NS(C)(=O)=O)ccc2Oc2ccc(F)cc2F)cc(N2CCCC2)c1=O` [Example 281, N-[4-(2,4-difluorophenoxy)-3-(1-methyl-6-oxo-5-pyrrolidin-1-ylpyridin-3-yl)phenyl]methanesulfonamide], the IC50 under setting [1] is 0.5 to 5 µM. Take `Cn1cc(-c2cc(OCC3CC3)cc(S(C)(=O)=O)c2)c2ccoc2c1=O` [Example 350, 4-[3-(cyclopropylmethoxy)-5-methylsulfonylphenyl]-6-methylfuro[2,3-c]pyridine-7-one]: the IC50 under setting [1] was below 0.5 µM.

In turn, `Cn1cc(-c2cccc(S(C)(=O)=O)c2)nc(N)c1=O` [Example 104, 3-amino-1-methyl-5-(3-methylsulfonylphenyl)pyrazin-2-one] gave an IC50 (class symbols A/B/C) above 5 µM.

Consider `Cn1cc(-c2cc(S(C)(=O)=O)cc3c2OC(C2CC2)C3)c2ccccc2c1=O` (centres unmarked) [Example 493, 4-(2-cyclopropyl-5-methylsulfonyl-2,3-dihydro-1-benzofuran-7-yl)-2-methylisoquinolin-1-one], for which the IC50 under setting [1] was below 0.5 µM. `Cc1cc(-c2cccc(NS(C)(=O)=O)c2)cn(C)c1=O` [Example 96, N-[3-(1,5-dimethyl-6-oxopyridin-3-yl)phenyl]methanesulfonamide] came in with an IC50 (class symbols A/B/C) of 0.5 to 5 µM. Turning to `Cn1cc(-c2cc(CS(C)(=O)=O)ccc2OCC(F)(F)F)cc(F)c1=O` [Example 421, 3-fluoro-1-methyl-5-[5-(methylsulfonylmethyl)-2-(2,2,2-trifluoroethoxy)phenyl]pyridin-2-one], under setting [1], the IC50 was below 0.5 µM.

Take `Cn1cc(-c2cccc(NS(C)(=O)=O)c2)c2cnccc2c1=O` [Example 125, N-[3-(2-methyl-1-oxo-2,6-naphthyridin-4-yl)phenyl] methanesulfonamide]: where the note is “class symbols A/B/C”, the IC50 is 0.5 to 5 µM.

Regarding `Cn1cc(-c2cc(S(C)(=O)=O)ccc2Oc2ccc(F)cc2F)c2ncncc2c1=O` [Example 233, 8-[2-(2,4-difluorophenoxy)-5-methylsulfonylphenyl]-6-methylpyrido[4,3-d]pyrimidin-5-one], the IC50 under setting [1] is 0.5 to 5 µM. Consider `CCS(=O)(=O)Nc1ccc(Oc2ccc(F)cc2F)c(-c2cn(C)c(=O)c3c2CNCC3)c1` [Example 142, N-[4-(2,4-difluorophenoxy)-3-(2-methyl-1-oxo-5,6,7,8-tetrahydro-2,6-naphthyridin-4-yl)phenyl]ethanesulfonamide], for which the IC50 under setting [1] lay within 0.5 to 5 µM. Turning to `Cn1cc(-c2cc(N)cc(F)c2)c2ccccc2c1=O` [Example 25, 4-(3-amino-5-fluorophenyl)-2-methylisoquinolin-1-one hydrochloride], the IC50 (class symbols A/B/C) was 0.5 to 5 µM.

The term IC50 denotes the concentration that inhibits the measured activity by half. Read a high IC50 as a need for much substance.

(Values after patent US10023592B2, “Bromodomain inhibitors” (Celgene Quanticel Research, Inc., priority 2013, dated 2018).)
